≈ marks a conversion by molar mass, not a printed value.
Legend:
[1] = system: C. albicans; assay: In vitro antifungal activity, MIC by serial agar dilution method (C. albicans); format: cell-based; conditions: Sabouraud dextrose agar, 44 hours at 28° C.; for MIC: Candida albicans
Experimental: (§1) Antifungal activities of representative compounds of the present invention were evaluated both in vitro and in vivo. The minimum inhibitory concentrations (MICs) against various fungi were determined by serial agar dilution method using Sabouraud dextrose agar. Thus, approximately 0.003 ml of fungal suspension containing 10^6 cells/ml was applied to the surface of agar plates containing the test antibiotics. The MIC values recorded after the cultures had been incubated for 44 hours at 28° C. are set forth below in Table I.

[2] = system: C. neoformans; assay: In vitro antifungal activity, MIC by serial agar dilution method (C. neoformans); format: cell-based; conditions: Sabouraud dextrose agar, 44 hours at 28° C.; for MIC: Cryptococcus neoformans
Experimental: as §1

[3] = system: A. fumigatus; assay: In vitro antifungal activity, MIC by serial agar dilution method (A. fumigatus); format: cell-based; conditions: Sabouraud dextrose agar, 44 hours at 28° C.; for MIC: Aspergillus fumigatus
Experimental: as §1

[4] = system: T. mentagrophytes; assay: In vitro antifungal activity, MIC by serial agar dilution method (T. mentagrophytes); format: cell-based; conditions: Sabouraud dextrose agar, 44 hours at 28° C.; for MIC: Trichophyton mentagrophytes
Experimental: as §1

[5] = system: Candida albicans A9540; assay: In vivo activity against Candida albicans A9540 infection in mice; conditions: A9540, 480 h, male ICR mice, intravenous just after i.v. infection, survival on 20th day, read-out: PD50 (dose that protects 50% of the animals from infection)
Experimental: In vivo activity of compounds of the present invention was tested against Candida albicans A9540 infection in mice. Test organisms were cultured for 18 hours at 28° C. in YGP medium (yeast extract, glucose, peptone, K2 HPO4, MgSO4) and then suspended in saline. Male ICR mice weighing 20 to 24 g were infected intravenously with about 10 times the median lethal dose of the test fungus. The antibiotic at various dose levels was administered to groups of 5 mice each intravenously just after the fungal infection. The dose that protects 50% of the animals from infection (PD50, mg/kg) was calculated from survival rates recorded on the 20th day after the fungal challenge. All control animals died within 7 to 15 days after infection. The PD50 for compounds of Examples 2, 4, and 5 are 18 mg/kg, 11 mg/kg and 8.8 mg/kg, respectively.

[6] = system: calcium ion and calmodulin-dependent cyclic nucleotide phosphodiesterase; conditions: cited from earlier work

**Q.** With `CN[C@@H]1[C@H](O[C@@H]2OC[C@@H](O)[C@H](O)[C@H]2O)[C@@H](O)[C@H](O[C@H]2c3cc(C)c(C(=O)N[C@H](C)C(N)=O)c(O)c3-c3c(cc4c(c3O)C(=O)c3cc(OC)cc(O)c3C4=O)[C@@H]2O)O[C@@H]1C` [Example 4, Pradimicin A Amide] as the molecule, how does the MIC [1] read?
**A.** 6.3 µg/mL (≈ 7.5 µM)

**Q.** And the MIC [2]?
**A.** 1.6 µg/mL (≈ 1.91 µM)

**Q.** What about the MIC [3] of the same molecule?
**A.** 6.3 µg/mL (≈ 7.5 µM)

**Q.** What about the MIC [4] of the same molecule?
**A.** 12.5 µg/mL (≈ 14.9 µM)

**Q.** What about the ED50 [5] of the same molecule?
**A.** 11 mg/kg

**Q.** With `CN[C@@H]1[C@H](O[C@@H]2OC[C@@H](O)[C@H](O)[C@H]2O)[C@@H](O)[C@H](O[C@H]2c3cc(C)c(C(=O)N[C@H](C)C(=O)NN)c(O)c3-c3c(cc4c(c3O)C(=O)c3cc(OC)cc(O)c3C4=O)[C@@H]2O)O[C@@H]1C` [Example 3, Pradimicin A Hydrazide] as the molecule, how does the MIC [1] read?
**A.** 50 µg/mL (≈ 58.5 µM)

**Q.** What about the MIC [2] of the same molecule?
**A.** 3.1 µg/mL (≈ 3.63 µM)

**Q.** What about the MIC [3] of the same molecule?
**A.** 25 µg/mL (≈ 29.2 µM)

**Q.** And the MIC [4]?
**A.** 25 µg/mL (≈ 29.2 µM)

**Q.** With `CN[C@@H]1[C@H](O[C@@H]2OC[C@@H](O)[C@H](O)[C@H]2O)[C@@H](O)[C@H](O[C@H]2c3cc(C)c(C(=O)N[C@H](C)C(=O)N[C@H](C)C(=O)O)c(O)c3-c3c(cc4c(c3O)C(=O)c3cc(OC)cc(O)c3C4=O)[C@@H]2O)O[C@@H]1C` [Example 1, D-alanyl Pradimicin A] as the molecule, how does the MIC [1] read?
**A.** 25 µg/mL (≈ 27.4 µM)

**Q.** And the MIC [2]?
**A.** 6.3 µg/mL (≈ 6.91 µM)

**Q.** And the MIC [3]?
**A.** > 100 µg/mL

**Q.** And the MIC [4]?
**A.** > 100 µg/mL

**Q.** Which “inhibitor of calcium ion and calmodulin-dependent cyclic nucleotide phosphodiesterase” value [6] does the source give for `CC(=O)Cc1cc2c(c(O)c1C(=O)O)-c1cc3c(c(O)c1CC2)C(=O)c1c(O)cc(O)cc1C3=O` [KS-619-1] here?
**A.** inhibitor

**Q.** Which MIC [1] does the source give for `CNC(=O)[C@@H](C)NC(=O)c1c(C)cc2c(c1O)-c1c(cc3c(c1O)C(=O)c1cc(OC)cc(O)c1C3=O)[C@H](O)[C@H]2O[C@@H]1O[C@H](C)[C@H](NC)[C@H](O[C@@H]2OC[C@@H](O)[C@H](O)[C@H]2O)[C@H]1O` [Example 5, Pradimicin A Methylamide] here?
**A.** 6.3 µg/mL (≈ 7.38 µM)

**Q.** What about the MIC [2] of the same molecule?
**A.** 1.6 µg/mL (≈ 1.87 µM)

**Q.** What about the MIC [3] of the same molecule?
**A.** 6.3 µg/mL (≈ 7.38 µM)

**Q.** What about the MIC [4] of the same molecule?
**A.** 6.3 µg/mL (≈ 7.38 µM)

**Q.** What about the ED50 [5] of the same molecule?
**A.** 8.8 mg/kg

**Q.** Which results are given for Pradimicin A Butylamide [Example 6]?
**A.** MIC C. albicans [1]: 100 µg/mL; MIC C. neoformans [2]: 3.1 µg/mL; MIC A. fumigatus [3]: 50 µg/mL; MIC T. mentagrophytes [4]: 100 µg/mL

**Q.** With `CN[C@@H]1[C@H](O[C@@H]2OC[C@@H](O)[C@H](O)[C@H]2O)[C@@H](O)[C@H](O[C@H]2c3cc(C)c(C(=O)N[C@H](C)C(=O)NCC(=O)O)c(O)c3-c3c(cc4c(c3O)C(=O)c3cc(OC)cc(O)c3C4=O)[C@@H]2O)O[C@@H]1C` [Example 7, Glycyl Pradimicin A] as the molecule, how does the MIC [1] read?
**A.** > 50 µg/mL

**Q.** What about the MIC [2] of the same molecule?
**A.** 12.5 µg/mL (≈ 13.9 µM)

**Q.** And the MIC [3]?
**A.** > 50 µg/mL

**Q.** And the MIC [4]?
**A.** > 50 µg/mL

**Q.** Which results are given for `CN[C@@H]1[C@H](O[C@@H]2OC[C@@H](O)[C@H](O)[C@H]2O)[C@@H](O)[C@H](O[C@H]2c3cc(C)c(C(=O)N[C@H](C)C(=O)N(C)C)c(O)c3-c3c(cc4c(c3O)C(=O)c3cc(OC)cc(O)c3C4=O)[C@@H]2O)O[C@@H]1C` [Example 2, Pradimicin A Dimethylamide]?
**A.** MIC [1]: 12.5 µg/mL (≈ 14.4 µM); MIC [2]: 1.6 µg/mL (≈ 1.84 µM); MIC [3]: 6.3 µg/mL (≈ 7.26 µM); MIC [4]: 12.5 µg/mL (≈ 14.4 µM); ED50 [5]: 18 mg/kg

Reference: patent US5053395A, “Pradimicin amide derivatives” (Bristol-Myers Company, priority 1989, dated 1991)
